Patent US8192962B2, “Processes for detecting toxic substances” (Daikin Industries, Ltd., priority 2001, dated 2012)

Tested on: Mitochondria-located protein genes
Assay: DNA chip mRNA expression in yeast, mitochondria-located protein genes (Table 2)
Type: cell-based, Saccharomyces cerevisiae S288C
Conditions: cells incubated two hours with the chemical substance
Method: Yeast (Saccharomyces cerevisiae S288C (α SUC2mal mel gap2 CUP1)) were incubated at 25° C. on YPD medium (yeast extract 1%, polypepton 2%, glucose 2%). One of toxic chemical substances was added to the cells at logarithmic growth phase, and the cells were further incubated for two hours. Cells were cultured without any chemical substance in the same condition, and were used as control. Concentrations of the chemical substances were defined to inhibit the growth of the yeast but not lead to death.
After completion of the incubation, the culture was centrifuged to collect the cells. To the cells, sodium acetate buffer (50 mM sodium acetate, 10 mM EDTA, 1% SDS) was added, and the mixture was shaken at 65° C. for five minutes, followed by returning to room temperature, and obtaining the supernatant, of which the procedures were repeated two times. To the supernatant, ½ amount of a solution of phenol/chloroform was added, and the mixture was centrifuged to give a supernatant, which was added with an equal amount of chloroform, and the mixture was centrifuged to give a supernatant. To the supernatant, an equal amount of isopropanol containing 0.3 M sodium acetate was added, and the mixture was allowed to stand at room temperature for 30 minutes, after which the mixture was centrifuged to give a sediment of the whole RNAs. Seventy % ethanol was added to the sediment, and the mixture was again centrifuged to give a sediment, which was then dried and dissolved in water. mRNA was isolated from the whole RNAs as followings. In view of the fact that a poly A chain is attached to the 3′ terminus of mRNA, a polynucleotide having a poly T structure which was immobilized on the surface of latex beads was used to trap the mRNA, and then the mRNA was washed and eluted with spine column (Oligotex-dT30<Super>mRNA Purification Kit, Takara). Reverse transcription of the mRNA was conducted with a reverse transcriptase (Super Script II Reverse Transcriptase; catalogue No. 18064-014, GibcoBRL) using fluorescence-labeled nucleotides to give cDNAs that were introduced with Cy3-dUTP or Cy5-dUTP during the reverse transcription.
The labeled cDNAs were dissolved in TE buffer (10mM Tris-HCl/1 mM EDTA, pH8.0), and the solution was dropped on the DNA chip containing the whole genes of yeast (DNA Chip Research Inc. Japan) so that the cDNAs were hybridized on the DNA chip at 65° C. for over 12 hours. The fluoresces intensity of the DNA chip was read with a scanner, and the ratio relative to the fluorescence intensity resulting from the absence of chemical substance was estimated as the following, which is shown in Tables 1 to 9: […]

[Cl][Pb][Cl] [(4), PbCl2]
The level of expressed mRNA in the presence of chemical substance/The level of expressed mRNA in the absence of chemical substance (yeast gene YAL039C): 1.0 | The level of expressed mRNA in the presence of chemical substance/The level of expressed mRNA in the absence of chemical substance (yeast gene YBL022C): 0.7 | The level of expressed mRNA in the presence of chemical substance/The level of expressed mRNA in the absence of chemical substance (yeast gene YBL030C): 0.9 | The level of expressed mRNA in the presence of chemical substance/The level of expressed mRNA in the absence of chemical substance (yeast gene YBL038W): 1.8 | The level of expressed mRNA in the presence of chemical substance/The level of expressed mRNA in the absence of chemical substance (yeast gene YBL099W): 1.4 | The level of expressed mRNA in the presence of chemical substance/The level of expressed mRNA in the absence of chemical substance (yeast gene YBR003W): 1.9 | The level of expressed mRNA in the presence of chemical substance/The level of expressed mRNA in the absence of chemical substance (yeast gene YBR044C): 1.9 | The level of expressed mRNA in the presence of chemical substance/The level of expressed mRNA in the absence of chemical substance (yeast gene YBR091C): 3.0 | The level of expressed mRNA in the presence of chemical substance/The level of expressed mRNA in the absence of chemical substance (yeast gene YBR122C): 1.1 | The level of expressed mRNA in the presence of chemical substance/The level of expressed mRNA in the absence of chemical substance (yeast gene YBR185C): 2.0 | The level of expressed mRNA in the presence of chemical substance/The level of expressed mRNA in the absence of chemical substance (yeast gene YBR221C): 1.5 | The level of expressed mRNA in the presence of chemical substance/The level of expressed mRNA in the absence of chemical substance (yeast gene YBR251W): 1.2 | The level of expressed mRNA in the presence of chemical substance/The level of expressed mRNA in the absence of chemical substance (yeast gene YBR282W): 2.3 | The level of expressed mRNA in the presence of chemical substance/The level of expressed mRNA in the absence of chemical substance (yeast gene YCL057W): 0.5 | The level of expressed mRNA in the presence of chemical substance/The level of expressed mRNA in the absence of chemical substance (yeast gene YCR046C): 1.6 | The level of expressed mRNA in the presence of chemical substance/The level of expressed mRNA in the absence of chemical substance (yeast gene YCR083W): 1.8 | The level of expressed mRNA in the presence of chemical substance/The level of expressed mRNA in the absence of chemical substance (yeast gene YDL067C): 1.3 | The level of expressed mRNA in the presence of chemical substance/The level of expressed mRNA in the absence of chemical substance (yeast gene YDL181W): 1.8 | The level of expressed mRNA in the presence of chemical substance/The level of expressed mRNA in the absence of chemical substance (yeast gene YDL198C): 1.4 | The level of expressed mRNA in the presence of chemical substance/The level of expressed mRNA in the absence of chemical substance (yeast gene YDR079W): 1.1 | The level of expressed mRNA in the presence of chemical substance/The level of expressed mRNA in the absence of chemical substance (yeast gene YDR178W): 2.2 | The level of expressed mRNA in the presence of chemical substance/The level of expressed mRNA in the absence of chemical substance (yeast gene YDR231C): 1.5 | The level of expressed mRNA in the presence of chemical substance/The level of expressed mRNA in the absence of chemical substance (yeast gene YDR258C): 1.4 | The level of expressed mRNA in the presence of chemical substance/The level of expressed mRNA in the absence of chemical substance (yeast gene YDR298C): 1.3 | The level of expressed mRNA in the presence of chemical substance/The level of expressed mRNA in the absence of chemical substance (yeast gene YDR347W): 3.5 | The level of expressed mRNA in the presence of chemical substance/The level of expressed mRNA in the absence of chemical substance (yeast gene YDR377W): 1.4 | The level of expressed mRNA in the presence of chemical substance/The level of expressed mRNA in the absence of chemical substance (yeast gene YDR529C): 3.2 | The level of expressed mRNA in the presence of chemical substance/The level of expressed mRNA in the absence of chemical substance (yeast gene YEL024W): 1.1 | The level of expressed mRNA in the presence of chemical substance/The level of expressed mRNA in the absence of chemical substance (yeast gene YEL039C): 5.1 | The level of expressed mRNA in the presence of chemical substance/The level of expressed mRNA in the absence of chemical substance (yeast gene YER178W): 1.0 | The level of expressed mRNA in the presence of chemical substance/The level of expressed mRNA in the absence of chemical substance (yeast gene YFL016C): 0.9 | The level of expressed mRNA in the presence of chemical substance/The level of expressed mRNA in the absence of chemical substance (yeast gene YGL018C): 3.0 | The level of expressed mRNA in the presence of chemical substance/The level of expressed mRNA in the absence of chemical substance (yeast gene YGL187C): 1.8 | The level of expressed mRNA in the presence of chemical substance/The level of expressed mRNA in the absence of chemical substance (yeast gene YGL191W): 1.8 | The level of expressed mRNA in the presence of chemical substance/The level of expressed mRNA in the absence of chemical substance (yeast gene YGR008C): 3.2 | The level of expressed mRNA in the presence of chemical substance/The level of expressed mRNA in the absence of chemical substance (yeast gene YGR028W): 1.8 | The level of expressed mRNA in the presence of chemical substance/The level of expressed mRNA in the absence of chemical substance (yeast gene YGR062C): 1.4 | The level of expressed mRNA in the presence of chemical substance/The level of expressed mRNA in the absence of chemical substance (yeast gene YGR076C): 2.3 | The level of expressed mRNA in the presence of chemical substance/The level of expressed mRNA in the absence of chemical substance (yeast gene YGR082W): 1.0 | The level of expressed mRNA in the presence of chemical substance/The level of expressed mRNA in the absence of chemical substance (yeast gene YGR174C): 2.4 | The level of expressed mRNA in the presence of chemical substance/The level of expressed mRNA in the absence of chemical substance (yeast gene YGR244C): 1.6 | The level of expressed mRNA in the presence of chemical substance/The level of expressed mRNA in the absence of chemical substance (yeast gene YHR008C): 1.8 | The level of expressed mRNA in the presence of chemical substance/The level of expressed mRNA in the absence of chemical substance (yeast gene YIL155C): 3.7 | The level of expressed mRNA in the presence of chemical substance/The level of expressed mRNA in the absence of chemical substance (yeast gene YJL096W): 1.3 | The level of expressed mRNA in the presence of chemical substance/The level of expressed mRNA in the absence of chemical substance (yeast gene YJL102W): 0.8 | The level of expressed mRNA in the presence of chemical substance/The level of expressed mRNA in the absence of chemical substance (yeast gene YJL133W): 0.9 | The level of expressed mRNA in the presence of chemical substance/The level of expressed mRNA in the absence of chemical substance (yeast gene YJL166W): 1.3 | The level of expressed mRNA in the presence of chemical substance/The level of expressed mRNA in the absence of chemical substance (yeast gene YJL180C): 1.3 | The level of expressed mRNA in the presence of chemical substance/The level of expressed mRNA in the absence of chemical substance (yeast gene YJR077C): 1.6 | The level of expressed mRNA in the presence of chemical substance/The level of expressed mRNA in the absence of chemical substance (yeast gene YJR121W): 1.0
